In ChEMBL document CHEMBL1123332, “Synthesis and anti-herpes-virus activity of acyclic 2'-deoxyguanosine analogues related to 9-[(1,3-dihydroxy-2-propoxy)methyl]guanine” (1986):

What was measured:
[1] = system: Mus musculus; assay: Mean survival time of HSV-2 encephalitis infectuous mice upon subcutaneous treatment with the compound at a dose of 20 mg/kg; format: functional
[2] = Antiviral activity determined against herpes simplex type 1 (F strain) by plaque reduction in Vero cells; format: functional; conditions: Chlorocebus sabaeus, read-out: ID50 (the source's name)
[3] = system: Thymidine kinase (Human alphaherpesvirus 1); assay: Phosphorylation of compound by purified HSV-1 (F strain) thymidine kinase; parameters: concentration or dose not given beside the values
[4] = system: Mus musculus; assay: Effect of subcutaneous treatment with the compound on HSV-2 encephalitis infection in mice at a dose of 20 mg/kg; 3/10; format: functional
[5] = system: Mus musculus; assay: Effect of subcutaneous treatment with the compound on HSV-2 encephalitis infection in mice at a dose of 20 mg/kg; 2/10; format: functional
[6] = system: Mus musculus; assay: Effect of subcutaneous treatment with the compound on HSV-2 encephalitis infection in mice at a dose of 20 mg/kg; 10/16; format: functional

| SMILES | MST [1] [days] | IC50 [2] [µM] | Activity [3] [%] | Survivors [4] | Survivors [5] | Survivors [6] |
| --- | --- | --- | --- | --- | --- | --- |
| Nc1nc(O)c2ncn(COCCOC(CO)CO)c2n1 | 10.3 | > 7 | 23 | 3 |  |  |
| Nc1nc(O)c2ncn(CO[C@H](CO)CF)c2n1 | 8.5 | > 7 | 67 |  | 2 |  |
| NC[C@@H](CO)OCn1cnc2c(O)nc(N)nc21 |  | 32 | < 10 |  |  |  |
| [N-]=[N+]=NC[C@@H](CO)OCn1cnc2c(O)nc(N)nc21 |  | > 100 | 25 |  |  |  |
| Nc1nc2c(ncn2COC(CO)CO)c(=O)[nH]1 [GANCICLOVIR] | 13.5 | 0.2 |  |  |  | 10 |
| Nc1nc2c(ncn2COCCO)c(=O)[nH]1 [ACYCLOVIR] |  | 0.5 |  |  |  |  |
| Nc1nc(O)c2ncn(CO[C@H](CO)COC3CCCC3)c2n1 |  | 40 | 21 |  |  |  |
| CC(CO)(CO)COCn1cnc2c(O)nc(N)nc21 |  | > 100 | 100 |  |  |  |
| Nc1nc(O)c2ncn(CO[C@H](CO)CCl)c2n1 |  | 60 | 33 |  |  |  |
| C[C@@H](CO)OCn1cnc2c(O)nc(N)nc21 |  | 2.3 | 28 |  |  |  |
| Nc1nc2c(ncn2CC(CO)CO)c(=O)[nH]1 [TIVICICLOVIR] |  | > 100 |  |  |  |  |
| COC[C@@H](CO)OCn1cnc2c(O)nc(N)nc21 |  | 70 | 32 |  |  |  |
| Nc1nc(O)c2ncn(CCOC(CO)CO)c2n1 |  | > 100 | 35 |  |  |  |
| Nc1nc(O)c2ncn(CO[C@H](CO)CCO)c2n1 |  | 95 | 111 |  |  |  |
